Source: patent US7247705B2, “Proteins having glucose transporter activity” (Takeda Pharmaceutical Company Limited, priority 2000, dated 2007)

Experiments:
Assay type in all cases: cell-based
rat SGLT homolog = assay: α-methyl glucose uptake in COS7 cell expressing the rat SGLT homolog; conditions: COS7 cells, NaCl + 100 μM or 1 mM phlorizin, one-hour incubation, FIG. 9
Method: (§1) The cDNA of human SGLT1 (NCBI Accession NM_000343) was amplified by PCR from Clontech MTC panel kidney cDNA library, and subcloned into the expression vector for animal cells, pME18S between EcoRI and SpeI sites to prepare pME18S-hSGLT1. COS7 cells (5×10^5 cells) were transfected with each 1 μg of plasmids pME18S, pME18S-hSGLT1, and pME18S-rat-SGLT-homolog according to the FuGENE6 method (Roche).
(§2) Experimental incorporation of α-methyl glucose into the COS7 cell having pME18S, the COS7 cell expressing hSGLT1, and the COS7 cell expressing the rat SGLT homolog was carried out according to the method described in Am. J. Physiol. 270:G833-G843 (1996) and J. Clin. Invest. 93:397-404, 1994. These cells were plated on a 96-well plate in a cell density of 3×10^4 cells/well and in a volume of 100 μl of DMEM containing 10% FBS per well, and cultured overnight at 37° C. The cells were washed 3 times with 150 μl of a buffer solution (125 mM KCl, 1.2 mM KH2PO4, 2.5 mM CaCl2, 1.2 mM MgSO4, 4 mM Glutamine, 10 mM HEPES (pH 7.2), 0.1 mg/ml BSA), and cultured for an hour in the same buffer solution to remove the rest of glucose. […] The radioactivity of ^14C incorporated into the cells was counted with 100 μl of a liquid scintillator added per well.

mouse SGLT homolog = target: T1, mouse SGLT homolog (Mus musculus, UniProt Q8VDT1); assay: α-methyl glucose uptake in COS7 cell expressing the mouse SGLT homolog; conditions: COS7 cells, NaCl + 100 μM or 1 mM phlorizin, one-hour incubation, FIG. 6
T1 construct: expressed in transfected cells; host or cells: COS7 cells, transient, FuGENE6
T1 sequence (Q8VDT1 8-685): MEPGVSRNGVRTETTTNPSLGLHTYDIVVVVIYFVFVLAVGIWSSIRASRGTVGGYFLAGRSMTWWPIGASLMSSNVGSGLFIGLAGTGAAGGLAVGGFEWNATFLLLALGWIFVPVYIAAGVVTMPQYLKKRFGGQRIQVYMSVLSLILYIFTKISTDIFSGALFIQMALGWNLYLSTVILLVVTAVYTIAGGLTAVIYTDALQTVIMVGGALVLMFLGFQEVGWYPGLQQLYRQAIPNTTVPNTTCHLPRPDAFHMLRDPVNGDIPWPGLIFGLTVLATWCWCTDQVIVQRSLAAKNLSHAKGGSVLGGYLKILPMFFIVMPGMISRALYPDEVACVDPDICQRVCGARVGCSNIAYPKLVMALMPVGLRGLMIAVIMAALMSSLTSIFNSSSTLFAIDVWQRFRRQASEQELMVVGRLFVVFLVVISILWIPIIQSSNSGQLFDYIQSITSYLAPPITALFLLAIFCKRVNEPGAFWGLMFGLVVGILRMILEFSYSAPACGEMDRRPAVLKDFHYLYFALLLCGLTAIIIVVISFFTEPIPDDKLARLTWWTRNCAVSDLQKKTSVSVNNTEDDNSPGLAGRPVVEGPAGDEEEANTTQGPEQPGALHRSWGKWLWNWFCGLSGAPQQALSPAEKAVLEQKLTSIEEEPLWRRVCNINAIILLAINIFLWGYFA
Method: as §1, with “pME18S-mouse-SGLT-homolog” for “pME18S-rat-SGLT-homolog”
as §2, with “having pMEI 8S,” for “having pME18S,”, “the mouse” for “the rat”, “Invest. 93:397-404,1994.” for “Invest. 93:397-404, 1994.”

human SGLT homolog [1] = target: T2, human SGLT homolog (Homo sapiens, UniProt Q2M3M2, I269M); assay: α-methyl glucose uptake in COS7 cells carrying pME18S-human-SGLT-homolog (pTB2193); conditions: NaCl + 100 μM or 1 mM phlorizin, one-hour incubation, FIG. 12
T2 construct: expressed in transfected cells
T2 sequence (Q2M3M2 8-681 I269M): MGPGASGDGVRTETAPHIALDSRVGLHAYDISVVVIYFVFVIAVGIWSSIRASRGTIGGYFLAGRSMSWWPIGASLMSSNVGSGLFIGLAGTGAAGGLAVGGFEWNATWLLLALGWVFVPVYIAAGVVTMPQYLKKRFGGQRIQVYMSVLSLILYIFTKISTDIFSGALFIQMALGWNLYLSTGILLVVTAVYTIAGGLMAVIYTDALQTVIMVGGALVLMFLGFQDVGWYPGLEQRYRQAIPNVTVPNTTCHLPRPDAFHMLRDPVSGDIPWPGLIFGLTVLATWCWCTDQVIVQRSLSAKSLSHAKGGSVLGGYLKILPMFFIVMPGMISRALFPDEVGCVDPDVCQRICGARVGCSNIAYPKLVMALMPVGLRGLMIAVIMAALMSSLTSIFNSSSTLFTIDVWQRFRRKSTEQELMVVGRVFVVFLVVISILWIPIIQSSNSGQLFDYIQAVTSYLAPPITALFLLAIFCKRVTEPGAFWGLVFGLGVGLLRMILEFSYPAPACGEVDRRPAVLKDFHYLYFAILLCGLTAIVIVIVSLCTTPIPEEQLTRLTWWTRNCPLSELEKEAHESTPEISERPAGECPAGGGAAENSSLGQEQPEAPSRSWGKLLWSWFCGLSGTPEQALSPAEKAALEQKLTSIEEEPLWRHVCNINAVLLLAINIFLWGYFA
Method: Each 1 μg of the expression vectors for animal cells: pME18S, pME18S-hSGLT2, pME18S-human-SGLT-homolog (pTB2193), pME18S-human-SGLT-homolog-SNP-C1 (pTB2251), pME18S-human-SGLT-homolog-SNP-C2 (pTB2252) and pME18S-human-SGLT-homolog-SNP-C3 (pTB2253), and 3 μl of FuGENE 6 (Roche) were added to Opti-MEM (Gibco-BRL) 100 μl for 15 min at room temperature. These mixtures were then added to COS7 cells (1×10^6 cells/1 ml of DMEM containing 10% FBS/well in 6-well plate) so that each gene was introduced into the cells.
Experimental incorporation of α-methyl glucose into the COS7 cells carrying pME 18S, pME18S-hSGLT2, pME 18S-human-SGLT-homolog (pTB2193), pME18S-human-SGLT-homolog-SNP-C 1 (pTB2251), pME18S-human-SGLT-homolog-SNP-C2 (pTB2252), and pME18S-human-SGLT-homolog-SNP-C3 (pTB2253) was carried out according to the method described in Am. J. Physiol. 270:G833-G843 (1996) and J. Clin. Invest. 93:397-404 (1994).
These gene-transfected cells were cultured for a day, and then plated on a 96-well plate in a cell density of 3×10^4 cells/well and in a volume of 100 μl of DMEM containing 10% FBS per well, and further cultured overnight at 37° C. […] The radioactivity of ^14C incorporated into the cells was counted with 100 μl of a liquid scintillator added per well.

human SGLT homolog [2] = target: T2, human SGLT homolog; assay: α-methyl glucose uptake in CHO cell expressing the SGLT homolog; conditions: CHO cells, NaCl + 10 μM or 100 μM Phlorizin, one-hour incubation, FIG. 3
Method: Each cDNA of human SGLT1 (NCBI Accession NM_000343) and SGLT2 (NCBI Accession NM_003041) was amplified by PCR from Clontech MTC panel kidney cDNA library, and subcloned into the expression vector for animal cells, pME18S between EcoRI and SpeI sites to prepare pME18S-hSGLT1 and pME18S-hSGLT2. CHO cells (1×10^6 cells) were co-transfected with each 5 μg of plasmids pME18S, pMEI 8S-SGLT homolog, pMEI 8S-hSGLT1, and pME18S-hSGLT2, and the expression vector for animal cells, pRSVneo […] according to the LipofectAMINE PLUS method (GIBCOBRL). These cells were cultured in DMEM containing G418 (500 μg/ml) and 10% FBS for 2 weeks to select the drug-resistant clones.
Total RNAs were extracted from respective G418-resistant CHO cells using RNAeasy Mini Kit (Quiagen). The expression of the SGLT homolog, hSGLT1 and hSGLT2 was quantified using TaqMan Gold RT-PCR Kit (PE Biosystems) according to the TaqMan PCR method to select CHO cells expressing each gene.
Experimental incorporation of α-methyl glucose into the CHO cell expressing the SGLT homolog, the CHO cell expressing hSGLT1, the CHO cell expressing hSGLT2, and the CHO cell having pME18S was carried out according to the method described in Am. J. Physiol. 270:G833-G843 (1996) and J. Clin. Invest. 93:397-404, 1994. […] The radioactivity of ^14C incorporated into the cells was counted with 100 μl of a liquid scintillator added per well.

O=C(CCc1ccc(O)cc1)c1c(O)cc(O)cc1O[C@@H]1O[C@H](CO)[C@@H](O)[C@H](O)[C@H]1O [phlorizin]
inhibited: inhibition of Na+-dependent α-methyl glucose uptake activity (rat SGLT homolog) | inhibition of Na+-dependent α-methyl glucose uptake activity (mouse SGLT homolog) | inhibition of NaCl-dependent glucose uptake activity (human SGLT homolog [1]) | inhibition of Na-dependent α-methyl glucose uptake activity (human SGLT homolog [2])
